ChEMBL document CHEMBL3507680, “University of Dundee, Gates Library screen for HepG2 cell viability”

Test: Human HepG2 cell viability assay in 384 well format
Type: toxicity, cell-based
Parameters: dose 125 nL, time 70.5 hour; cytotoxicity at 70.5 h: concentration not given beside the values
Conditions: HepG2 cells, read-out: Inhibition

Compound | cytotoxicity at 70.5 h [%]
CN1CCCC(Cc2cncc(C(=O)NC3CC3)c2)C1 (stereo not drawn) | -6.9
COc1ccc(CNCC2CNc3cc(C)nn3C2)cn1 (stereo not drawn) | -2.49
CN(C(=O)COC1CCCC1)C1CCN(CC2CCOC2)CC1 (stereo not drawn) | -11.5
O=C(c1cccnc1)N1CCc2ncnc(C3CCOC3)c2CC1 (stereo not drawn) | -7.71
COC(=O)CCCNC(=O)c1cc(COc2cncc(Cl)c2)on1 | 0.545
Cc1ncsc1CN1C[C@H](C(=O)NCC2CC2)[C@@H]2CCO[C@@H]2C1 | -7.28
CCn1nc(CC(C)C)cc1C(=O)N1CCC2(CC1)[C@H](O)C[C@@H]2O | 1.5
CCOCCn1nc(C)cc1C(=O)N1CC(C)(C)[C@@](C)(O)C1 | -2.57
N#Cc1cnc(NC2CCN(C(=O)C3CCCCC3)CC2)c(Cl)c1 | -0.508
CC(C)NC(=O)C1CCN(Cn2ccc(-c3ccc(F)cc3)n2)CC1 | 4
Cc1ccc(CCC(=O)N2CCC(Nc3cccnn3)CC2)cc1 | 1.83
Cc1cc(C)n(CC2CCCN2C(=O)c2cc[nH]n2)n1 (stereo not drawn) | -1.3
O=C(Cc1cccc(F)c1)N1CCc2ncnc(N3CCCC3)c2CC1 | -1.93
COc1ccc(CC(=O)N2CCc3nnc(N(C)C)cc3C2)cc1F | -2.52
CC(C)c1nc(C2CCCN(C(=O)CN3CCN(C)CC3)C2)no1 (stereo not drawn) | -7.22
COc1cc(N2CCCC(CO)(Cc3ccccc3F)C2)ncn1 (stereo not drawn) | 50.5
CCSCCC(=O)N1CCc2[nH]nc(COc3ccccc3)c2C1 | 23.8
CCOc1ccccc1N1CCN(C(=O)c2cc[nH]n2)CC1 | 0.935
O=C(Cc1n[nH]c(-c2cncc(Br)c2)n1)NCc1cccnc1 | -9.48
COc1ccc(F)c(CN2CCCC(O)(CNCc3ccon3)C2=O)c1 (stereo not drawn) | 8.61
CCC(NC(=O)CN(C)Cc1ccc(C)o1)c1ccc(Br)cc1 (stereo not drawn) | -1.78
Cn1cc(C(=O)N2CC[C@@H]3[C@@H]2CCN3c2ncc(F)cn2)cn1 | -5.7
CC(C)Nc1ncccc1C(=O)NCc1ncc[nH]1 | -1.28

Compound | cytotoxicity at 70.5 h [%]
Cc1cc(N2CCC3(CCCN(C4CCOCC4)C3=O)C2)ccn1 (stereo not drawn) | -4.29
CC(C)(C)OC(=O)N1CCCN(c2nnc(C3CC3)s2)CC1 | -0.941
Cc1nc(C)n(CC2CCCN2CC(=O)Nc2cc(C(C)C)no2)n1 (stereo not drawn) | -13.1
O=C(NCc1nc2ccccc2[nH]1)c1cnn2c1OCCC2 | -1.96
COCCNc1nc(C2CCCC2)nc2c1CCNCC2 | 2.05
C[C@@H]1CN(C(=O)C2(Cn3cccn3)CC2)CC[C@@]1(O)C1CC1 | 26.3
COc1ccccc1C(=O)N1CCC(Oc2ccc(C#N)cn2)CC1 | -2.18
CN(C)c1ccc(CCNC(=O)C2CCC(=O)N(C3CCCC3)C2)cc1 (stereo not drawn) | -8
CC(C)C(C)NC(=O)c1cc(Br)c2c(c1)OCCO2 (stereo not drawn) | -4.14
COCC1c2c(cnn2C)CCN1Cc1ccc(C)o1 (stereo not drawn) | -18.3
CN(Cc1ccno1)c1nc(C2CCCC2)nc2c1cnn2C | -2.09
CCC(NC(=O)c1cnc(N(C)C)nc1C)c1ccncc1 (stereo not drawn) | -6.22
O=c1cc(CN(Cc2ccco2)C2CC2)nc2ccc(Br)cn12 | -3.54
CCc1ccc(CN2C[C@H](OCC(=O)N(C)C)[C@H]3COC[C@H]32)o1 | -0.34
CCc1cc(N[C@H]2CC[C@H](O)CC2)n2nc(C)c(C)c2n1 | -0.423
CSc1ccccc1C(=O)NCCC(O)c1ccco1 (stereo not drawn) | 16.9
N#Cc1cn(C2CC2)c(=O)n(CC(O)c2ccc(F)cc2)c1=O (stereo not drawn) | -16.6
Cc1cc(OCC(=O)NS(=O)(=O)c2cccnc2)ccc1Cl | -2.82
Cc1cc(C)n(CC2CCCN2C(=O)Cc2c(C)nc(C)[nH]c2=O)n1 (stereo not drawn) | -13.8
Cc1nn(C)c2c(N3CCN(C(=O)c4ccccc4)CC3)ncnc12 | -2.93
CN(CCCc1cc(-c2cccc(F)c2)n[nH]1)C(=O)Cn1cncn1 | 22.1
FC(F)(F)CCc1ccnc(N2CCN(Cc3ccncc3)CC2)n1 | -13.8
Cc1cnc(C(NC(=O)NCc2nc(C3CC3)no2)C2CC2)s1 (stereo not drawn) | -1.45

Compound | cytotoxicity at 70.5 h [%]
CC(C)c1nc(C2CCCN(Cc3nnc(C4CC4)o3)C2)no1 (stereo not drawn) | -8.01
CC(c1cccnc1)N1CCN(CCCC#N)CC1 (stereo not drawn) | 15
COc1ccc(C(=O)Nc2cnn(CC(=O)NC3CCCC3)c2)c(O)c1 | -1.19
COc1cccc(OCc2cc(C(=O)NC[C@@H]3CCCN3)n[nH]2)c1 | 0.523
CCS(=O)(=O)N1CCCC2(COCCN(c3nncs3)C2)C1 (stereo not drawn) | -2.49
CCOC(=O)CN1CCC(NC(=O)OC(C)(C)C)CC1 | 14.9
Cn1ncc2c(=O)[nH]c(CN(Cc3ccco3)C3CCCC3)nc21 | -0.279
CCc1ccc(C2CCCCCN2C(=O)CNC(=O)NC2CC2)o1 (stereo not drawn) | -1.33
COc1ccc(CCNC(=O)C2CCOC2)c(Cl)c1 (stereo not drawn) | -2.75
O=c1cc(Cn2ccnc2)nc2n1CCCN(Cc1ccsc1)C2 | -19.5
Cc1cc(CNS(=O)(=O)CCCC#N)ccc1N(C)C | 0.915
CCNc1cc2c(nn1)CCN(C(=O)c1cc(C)no1)C2 | -3.88
CN(C)c1cccc(C2CCCN2S(N)(=O)=O)c1 (stereo not drawn) | -1.57
CN(CC1CCN(CCO)CC1)CC(O)c1ccc(F)c(F)c1 (stereo not drawn) | 7.09
CCC(=O)c1cccc(S(=O)(=O)NC(C)C#N)c1 (stereo not drawn) | -11
Cc1ccc(C(=O)NCCCS(C)(=O)=O)c(=O)[nH]1 | 15.4
CSc1ccccc1C(=O)NCCCN1CCc2ccccc2C1 | -5.68
Cc1nn(C)cc1NC(=O)CN1CCN(C2CCCC2)C(=O)C1 | -6.18
Cn1cc(C2CCCN2C(=O)CS(=O)(=O)C2CCCC2)cn1 (stereo not drawn) | -8.05
CCc1nn(C)c2[nH]nc(NC(=O)c3cccnc3NC(C)C)c12 | -50.3
Cc1ccc(CC(=O)N2Cc3nccn3CC(CN(C)C)C2)cc1 (stereo not drawn) | -13.3
Cc1nc(C2CCCN(C(=O)c3cccc4c3OCO4)C2)no1 (stereo not drawn) | -4.51
COc1cc(-n2ccnc2-c2ccc(C(=O)O)s2)ccc1NC(C)=O | -7.67

Compound | cytotoxicity at 70.5 h [%]
Cc1cnn(CC2CCCN2C(=O)c2c(C)noc2C(C)C)c1 (stereo not drawn) | 11.7
CCCc1cc(C(=O)N(CC)Cc2ccncc2)[nH]n1 | -7.59
Cc1nc(C(=O)N2CC[C@@]3(C[C@@H](NS(C)(=O)=O)CCO3)C2)cs1 | -5.85
O=C(NCc1ccc2c(c1)CCCO2)c1cn2c(n1)CNCC2 | 5.37
COC(=O)CN(Cc1ccccc1C)C(=O)CCNC(=O)C(C)(C)C | -6.72
CCCc1n[nH]c(C2CN(C(=O)c3ccco3)CCO2)n1 (stereo not drawn) | -10.8
O=C(c1cc(F)ccc1O)N1CCN(C2CCSC2)CC1 (stereo not drawn) | -8.37
O=S(=O)(c1ccc(-c2cnco2)cc1)N1CCCC(O)(CO)CC1 (stereo not drawn) | 12.5
CCn1cc(CN2CCC(O)(Cn3ccc4ncccc43)CC2)cn1 | -0.72
O=C(NCC1CC1)[C@@H]1CCO[C@@H]2CCN(Cc3ccco3)C[C@H]21 | 15.7
CCc1nnc2n1CCN(C(=O)c1ccc3[nH]nnc3c1)C2 | -8.74
CC(C)(C(=O)NCC(=O)N1CCCC1)c1ccccc1F | 3.99
CC(C)NS(=O)(=O)c1cc(C(=O)O)cc(-c2ccccc2C#N)c1 | 6.18
CSc1cccc(CC(=O)N[C@@H]2CCNC[C@H]2O)c1 | 10.3
Cc1noc(C)c1CNC(=O)C1(NS(C)(=O)=O)CCCCC1 | -5.85
Cc1ccc(CN(Cc2ccncc2)C2CC(C)(C)NC(C)(C)C2)o1 | -2.36
COCCNC(=O)c1nc(-c2cn(C)cn2)n2ccccc12 | -7.59
CCN(CC)C1(Cc2cc(-c3cccc(O)c3)on2)COC1 | -8.06
Cc1ccc(C)c(-n2ncc(NC(=O)NC3(C)CCOC3)c2C)c1 (stereo not drawn) | 14.4
CSCc1cccc(S(=O)(=O)N2CCSCC2)c1 | -4.49
O=C(c1cccc2cccnc12)N1CCCN(c2cccnn2)CC1 | -10.5
O=C(C1CCC1)N1CCn2c(COc3ncccn3)nnc2C1 | 1.54
Cc1ccccc1N1CCN(C(=O)c2cscn2)C(C)C1 (stereo not drawn) | -1.54

Compound | cytotoxicity at 70.5 h [%]
CCS(=O)(=O)N1C[C@H]2CN(Cc3cccc(C)c3)C(=O)[C@H]2C1 | -10.5
O=C(c1cccc(-n2cccn2)c1)N1CCCOC(Cn2cccn2)C1 (stereo not drawn) | 12.9
CCn1ncc2c1C(COC)N(C(=O)c1cccs1)CC2 (stereo not drawn) | 0.803
Cc1nn(C)c(Cl)c1C1CCCN1Cc1cccc(C(N)=O)c1 (stereo not drawn) | -10.9
CN(C)C(=O)c1ccc2c(c1)N(C)C(CC(=O)NCc1ccno1)CO2 (stereo not drawn) | -4.48
CCCc1cc(C(=O)N2C[C@H]3CCC[C@@]3(CO)C2)[nH]n1 | -7.84
O=C(NCc1cnn2cccnc12)c1cccc(CC2CCNCC2)c1 | 5.06
Cc1nn(C)c(N(C)C)c1CNC(C)COc1cccc(F)c1 (stereo not drawn) | 23.8
CC(C)C(NC(=O)c1ccco1)C(=O)N1CCC2(CC1)OCCO2 (stereo not drawn) | 17.8
COCCNc1cc(C)nn2cnnc12 | 11.1
CC(=O)c1cc(CC(=O)N2CCN(CCOc3ccccc3)CC2)cs1 | -1.31
Cn1cc(NS(=O)(=O)c2ccc(C(F)(F)F)cc2)ccc1=O | -9.18
COCCc1noc(CNC2CCc3nc(C(C)C)nn3C2)n1 (stereo not drawn) | -5
NC(=O)c1ccc(CN2CCC(N3CCCCC3)CC2)cc1 | -1.57
Cc1ccc(S(=O)(=O)N2CCC(Oc3ccccn3)CC2)c(C)c1 | -19.6
CN1C(=O)CO[C@H](c2ccc(NC(=O)c3cccnc3)cc2)[C@H]1CO | -2.53
Cc1nccc(CNC(=O)NCCC(=O)N2CCCc3ccccc32)n1 | -2.13
O=C(Cn1cc(C(=O)O)ccc1=O)NCc1ccc(F)c(Cl)c1 | -13.4
Cc1nc(CCNC(=O)NC(C)Cn2cccn2)cs1 (stereo not drawn) | -12.8
Cc1cccc(CN2C(=O)CCC23CCN(c2ncc(F)cn2)CC3)n1 | -5.55
O=C(NC1CC1)N1CC[C@H](OCC2CC2)[C@@H]1Cc1cccnc1 | 1.68
